The source of these data is patent US7781469B2, “Arylacetate derivatives having isoxazole skeleton” (Shionogi & Co., Ltd., priority 2005, dated 2010).

One series has as its target T1, human PPARδ (hPPARδ) (Homo sapiens, UniProt Q03181).
T1 construct: (δ: aa 139-C-end; α: aa 167-C-end); expressed in transfected cells
T1 sequence (Q03181 139-441 limits assumed): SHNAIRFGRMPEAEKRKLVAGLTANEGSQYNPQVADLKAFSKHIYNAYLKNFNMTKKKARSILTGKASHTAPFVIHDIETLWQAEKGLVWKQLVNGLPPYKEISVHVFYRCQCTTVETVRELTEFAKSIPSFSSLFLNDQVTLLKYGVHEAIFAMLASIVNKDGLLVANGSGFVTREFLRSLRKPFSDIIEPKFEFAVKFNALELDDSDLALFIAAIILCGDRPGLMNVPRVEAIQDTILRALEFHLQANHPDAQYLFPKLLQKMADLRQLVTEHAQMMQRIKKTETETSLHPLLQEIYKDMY
The series can be described thus: Test for transcriptional activity of PPARδ (GAL4 chimeric transcription factor luciferase reporter assay in CHO cells). The conditions noted are these: concentration showing 1/2 of maximum luciferase activity. The class given is cell-based. The source says:
Test Example 1 Test for Transcriptional Activity of PPARδ and α
A chimeric transcription factor assay, which is commonly used to detect nuclear receptor activity, was employed to measure PPAR transcriptional activity. Specifically, two plasmids, one that expresses the fusion protein of DNA binding domain of yeast transcription factor GAL4 and a ligand binding domain of a receptor, and a reporter plasmid were transiently transfected to CHO cells. The activity of the promoter containing a recognition sequence of GAL4 coded on the reporter plasmid was used as a parameter to estimate the activity of the receptor. • Plasmid: The ligand binding domain of human PPARδ (hPPARδ) or α (hPPARα) (δ: aa 139-C-end; α: aa 167-C-end) is obtained by PCR amplification using Human Universal Quick-Clone cDNA (CLONTECH). Each amplified cDNA was subcloned into pCR2.1-TOPO vector (Invitrogen) and the identity of the cDNA clones was confirmed by the DNA sequence. Then, each obtained cDNA fragment was subcloned into pBIND vector (Promega) to construct a plasmid expressing the fusion protein with DNA binding domain of yeast transcription factor GAL4. pG51uc vector (Promega) was used as a reporter plasmid. • Cell culturing and transfection: CHO cells were cultured in 10% FBS-αMEM. With a 96-well plate (Costar), CHO cells, that were dispersed with trypsin treatment, 20000 cells per well and the two plasmids obtained by the above procedure, 25 ng per well, were transfected with FuGene Reagent (Roche) by following the instruction of the manufacture. • Measurement of the transcriptional activity: CHO cells 100 μl per well, which were transfected as above, were dispensed into the wells in which a test compound dissolved in DMSO 0.5 μl was spotted in advance. After the cells and a test compound were cultured together for 24 hours in a CO2 incubator, the luciferase activity was measured by adding luciferase substrates, PicaGene LT2.0 (Toyo ink) 100 μl per well. LUMINOUS CT-9000D (DIA-IATRON) is used to measure the activity.
In general terms: In a reporter assay the amount or activity of a reporter protein is the signal.

Structures are written as SMILES.

In general, EC50 refers to the concentration that produces a half-maximal response. Low values mean an effect from little substance, high ones a need for much substance. Consider `O=C(O)Cc1cccc(SCc2noc(-c3ccc(C(F)(F)F)cc3)c2C=NOCCF)c1` [X-6, {3-[4-(2-Fluoroethoxyiminomethyl)-5-(4-trifluoromethylphenyl)isoxazole-3-ylmethylsulfanyl]phenyl}acetic acid], for which, on human PPARδ (hPPARδ), it took 9.8 nM to reach a half-maximal effect (EC50). Same read-out and setting: the value for `CCON=Cc1c(CSc2cc(CC(=O)O)ccc2F)noc1-c1ccc(C(F)(F)F)cc1` [X-8] was 9.8 nM. As usually defined, the melting point is the temperature, or range, at which the solid turns liquid. `CCON=Cc1c(CSc2cccc(CC(=O)O)c2)noc1-c1ccc(C(F)(F)F)cc1` [X-25] gave a melting point of 131 to 133 °C. The compound also came in with an EC50 at human PPARδ (hPPARδ) of 12 nM.
